# Entries after “also recorded” stand apart in the source; their conditions may differ.
# Experiments:
# [1] = system: HUVEC cells; assay: Endothelial tube formation in 3-D MATRIGEL; type: cell-based, Human; conditions: for endothelial tube formation: 3-D matrigel
# Method: (§1) Methods: Human umbilical vein endothelial cell (HUVEC) fate decisions that modulate the angiogenic phenotype were examined in the presence of 100 or 1500 μM CoQ10 or excipient and compared to untreated control cells. Endothelial cell fate assays for apoptosis, proliferation, migration and 3-D tube formation within MATRIGEL® were performed.
# (§2) To assess the potential effects of CoQ10 on endothelial migration, HUVEC migration was examined 5 hours post-cell clearance, in an endothelial scratch assay. […] In order to determine if the CoQ10 anti-tumor activity is due to effects on endothelial sprouting angiogenesis, we examined endothelial tube formation in 3-D MATRIGEL® cultures over time. Addition of excipient in both the gel and overlying media impaired tube formation compared to control.
# CoQ10 impairs endothelial tube formation: Endothelial cells growing in 3-D matrigel form tubes over time. Differential effects of 100 μM and 1500 μM CoQ10 on tube formation were observed. […] Images shown in FIG. 56 were taken at 72 hours.
# [2] = system: LDHA; assay: Wet lab validation of LDHA expression in HepG2 cells; type: cell-based; conditions: HepG2, 50 uM or 100 uM CoQ10, 24 or 48 hours
# Method: The cell model comprising the above-mentioned cells, wherein the cells were exposed to each condition described above, was additionally interrogated by exposing the cells to an environmental perturbation by treating with Coenzyme Q10. Specifically, the cells were treated with Coenzyme Q10 at 0, 50 μM, or 100 μM.
# Cell samples as well as media samples for each cell line with each condition and each Coenzyme Q10 treatment were collected at various times following treatment, including after 24 hours and 48 hours of treatment.
# Protein accession number P00338 is LDHA. Wet lab validation of proteomics data were performed for LDHA expression in HepG2 cells (see FIG. 20).
# [3] = system: HUVEC cells; assay: HUVEC proliferation (propidium iodide incorporation, G2/M phase); type: cell-based, Human; conditions: sub-confluent HUVEC, 72 hours, 100 or 1500 μM CoQ10
# Method: as §1
# CoQ10 decreases endothelial cell numbers and proliferation: Sub-confluent cultures of HUVEC cells were treated for 72 hours with 100 or 1500 μM CoQ10 and assayed for both cell numbers (FIG. 54A) and proliferation (FIG. 54B) using a propidium iodide incorporation assay (detects G2/M phase DNA).
# [4] = system: HUVEC cells; assay: Reactive oxygen species (ROS) generation in HUVEC under normoxia and hypoxia; type: cell-based, Human; conditions: subconfluent and confluent HUVEC, normoxic or hypoxic, 0, 100 or 1500 μM CoQ10
# Method: The response of HUVEC cells to normoxia and hypoxia in the presence of absence of CoQ10 was assessed. Specifically, HUVEC cells were grown in subconfluent and confluent cultures under normoxic or hypoxic conditions as described herein. The cells were also exposed to 0, 100, or 1500 μM CoQ10. Nitric oxide (NO) and reactive oxygen species (ROS) levels were determined using methods provided herein.
# [5] = system: HUVEC cells; assay: HUVEC migration, endothelial scratch assay; type: cell-based, Human; conditions: for closure of the cleared area (scratch assay): confluent HUVEC
# Method: as §1, §2
# CoQ10 decreases endothelial cell migration: HUVEC cells were grown to confluence tested for migration using the ‘scratch’ assay. 100 or 1500 μM CoQ10 was applied at the time of scratching and closure of the cleared area was monitored over 48 hours.
# [6] = system: HUVEC cells; assay: Endothelial morphology of HUVEC cultures; type: cell-based, Human; conditions: 24 hours
# Method: Effect of CoQ10 on endothelial morphology: Human umbilical vein endothelial cells (HUVEC cells) were treated for 24 hours with a range of concentrations of CoQ10. Drug was applied to confluent cells that closely resemble ‘normal’ cells and also to sub-confluent cells that more closely represent the angiogenic phenotype of proliferating cells. […] The response of sub-confluent endothelial cells to CoQ10 diverged from the confluent cell response (FIG. 52B).
# [7] = system: caspase 3; assay: Caspase 3 activation in endothelial cells; type: cell-based
# Excerpt: Angiogenesis is a key enabling feature of tumor progression that provides oxygen and nutrients that are required for tumor cell growth. We have investigated the anti-angiogenic properties of CoQ10, an anti-tumor drug that is currently under investigation in human studies of cancer progression.
# [8] = concentration not stated (summary)
compound,measurement,setting,value
"COC1=C(OC)C(=O)C(C/C=C(\C)CC/C=C(\C)CC/C=C(\C)CC/C=C(\C)CC/C=C(\C)CC/C=C(\C)CC/C=C(\C)CC/C=C(\C)CC/C=C(\C)CCC=C(C)C)=C(C)C1=O [CoQ10, Coenzyme Q10]",HUVEC tube formation,"[1]; 1500 μM CoQ10, compared to both excipient and control untreated cells, 24 hours up to 96 hours",further impaired
same,endothelial tube formation,[1]; 100 μM CoQ10,modest effect
same,endothelial tube formation,"[1]; 1500 μM CoQ10, images at 72 hours",Impaired cell to cell association and breakdown of early tube structure was significant; also recorded: dramatic disruption of endothelial tube formation
same,tube formation in 3-D MATRIGEL tube formation assays,[1]; [8],impairs
same,LDHA expression levels,[2],decreased
same,EC proliferation (G2/M phase cells),[3],dose-dependent effect; also recorded: potent inhibitor of endothelial proliferation; also recorded: impairs endothelial proliferation
same,generation of reactive oxygen species (ROS),[4],differential dose dependent generation
same,HUVEC migration,"[5]; 5 hours post-cell clearance, 100 and 1500 μM, excipient also impaired migration",significantly impaired
same,endothelial migration in scratch assays,[5]; [8],potent inhibition of endothelial migration; also recorded: impairs endothelial migration
same,closure of the cleared area (scratch assay),"[5]; 100 μM CoQ10, monitored over 48 hours, compared to control",delayed endothelial closure
same,closure of the cleared area (scratch assay),"[5]; 1500 μM CoQ10, up to 48 hours",prevented closure
same,endothelial morphology,"[6]; confluent cultures, 5000 μM",subtle increase in rounded cells
same,endothelial morphology,"[6]; confluent cultures, increasing concentrations of CoQ10","closer association, elongation and alignment of ECs"
same,endothelial morphology,"[6]; sub-confluent cultures, 1000 μM CoQ10 and above",visibly unhealthy
same,visible cell death,"[6]; sub-confluent cultures, increasing concentrations of CoQ10",Increased cell death
same,activation of caspase 3,[7],induces activation of caspase 3
